Where a SMILES comes first, the peptide text is derived from it.
Test: Cytotoxicity (MTT assay)
Type: cell-based, human
Details: human
Description: Hemolytic activity of the peptides was tested against the fresh suspension of human red blood cells (hRBC) using the hemoglobin release assay as described previously. Two experiments were performed with the hRBC from blood samples of independent donors. The quantitative data were represented as average means with standard deviations. The colorimetric 3-(4,5-dimethylthiazol-2-yl)-2,5-diphenyltetrazolium bromide (MTT) dye reduction assay was used to determine the cytotoxicity of the peptides against transformed human embryonic kidney cells (HEK293T). 10^4 cells per well in Dulbecco’s modified Eagle’s medium (DMEM/F12) supplemented with 10% fetal bovine serum (FBS; Invitrogen, Waltham, MA, USA) were placed into 96-well plates and then cultured in the CO2-incubator (5% CO2, 37 °C). After the media were removed, the peptides were dissolved in 100 µL of the same medium and added to cell cultures at different final concentrations. 20 h later, 20 μL of MTT (5 mg/mL; Sigma, St. Louis, MO, USA) was added to each well, and the plates were incubated for 4 h at 37 °C. Then, the media were discarded and a 100 µL dimethyl sulfoxide-isopropanol mixture at a ratio of 1:1 (v/v) was added to each well to dissolve the crystallized formazan. The absorbance at 570 nm was measured by a microplate reader AF2200 (Eppendorf, Hamburg, Germany). The optical density in the wells containing cells cultured without the peptides was assumed to represent 100% cell viability. Two independent experiments were performed for each peptide.

Work on `CC[C@H](C)[C@H](NC(=O)[C@H](CCCNC(=N)N)NC(=O)[C@@H](N)CCCNC(=N)N)C(=O)N[C@@H](CCCNC(=N)N)C(=O)N[C@@H](CCCNC(=N)N)C(=O)N1CCC[C@H]1C(=O)N[C@@H](CCCNC(=N)N)C(=O)N[C@@H](CC(C)C)C(=O)N1CCC[C@H]1C(=O)N[C@@H](CCCNC(=N)N)C(=O)N1CCC[C@H]1C(=O)N[C@@H](CCCNC(=N)N)C(=O)N[C@H](C(=O)N1CCC[C@H]1C(=O)N[C@@H](CCCNC(=N)N)C(=O)N1CCC[C@H]1C(=O)N[C@@H](CCCNC(=N)N)C(=O)N[C@H](C(=O)N1CCC[C@H]1C(=O)N1CCC[C@H]1C(=O)N[C@@H](CCCNC(=N)N)C(=O)N[C@H](C(=O)N1CCC[C@H]1C(=O)N[C@@H](CCCNC(=N)N)C(=O)N1CCC[C@H]1C(=O)N[C@H](C(=O)N[C@@H](CC(C)C)C(=O)N1CCC[C@H]1C(=O)N1CCC[C@H]1C(=O)N1CCC[C@H]1C(=O)N[C@@H](CCCNC(=N)N)C(=O)N[C@H](C(=O)N1CCC[C@H]1C(=O)N[C@@H](Cc1ccccc1)C(=O)N1CCC[C@H]1C(=O)N[C@@H](CCCNC(=N)N)C(=O)N[C@@H](Cc1ccccc1)C(=O)N1CCC[C@H]1C(=O)N[C@@H](CCCNC(=N)N)C(N)=O)C(C)C)C(C)C)[C@@H](C)CC)[C@@H](C)CC)C(C)C` [VicBac[1-39]] (H-RRIRRPRLPRPRVPRPRIPPRIPRPVLPPPRVPFPRFPR-NH2; N-terminus assumed) yielded an IC50 at 20 h of ~100 µM.
